PubChem BioAssay AID248 (DTP/NCI, 2004)
Several values for one entry are separate records, joined by “and”; a condition that tells them apart may be missing. Equal values may be shown once. Toxic doses and inconclusive results are not listed. Cut-off read from the data, not from the text of the source: active = T/C of 150% or more; inactive = T/C below 125%.

Tested on: L1210 leukemia ip in BDF1 mice, survival T/C
Test: NCI In Vivo Anticancer Drug Screen. Data for tumor model L1210 Leukemia (intraperitoneal) in B6D2F1 (BDF1) mice
Conditions: endpoint: mean survival time, higher = longer survival
Method in brief: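 Transplanted-tumor mice were given test agent; controls received vehicle only. Survival readings from the two groups were divided (treated over control).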

[1] = dose: 100.0 mg/kg/injection, schedule: Q04DX003 (ip), vehicle: saline with Tween-80
[2] = dose: 200.0 mg/kg/injection, schedule: Q04DX003 (ip), vehicle: saline with Tween-80
[3] = dose: 400.0 mg/kg/injection, schedule: Q04DX003 (ip), vehicle: saline with Tween-80
[4] = dose: 100.0 mg/kg/injection, schedule: Q01DX009 (ip), vehicle: Klucel (hydroxypropylcellulose) (HPC)
[5] = dose: 100.0 mg/kg/injection, schedule: Q04DX003 (ip), vehicle: Klucel (hydroxypropylcellulose) (HPC)
[6] = dose: 200.0 mg/kg/injection, schedule: Q01DX009 (ip), vehicle: Klucel (hydroxypropylcellulose) (HPC)
[7] = dose: 200.0 mg/kg/injection, schedule: Q04DX003 (ip), vehicle: Klucel (hydroxypropylcellulose) (HPC)
[8] = dose: 400.0 mg/kg/injection, schedule: Q01DX009 (ip), vehicle: Klucel (hydroxypropylcellulose) (HPC)
[9] = dose: 400.0 mg/kg/injection, schedule: Q04DX003 (ip), vehicle: Klucel (hydroxypropylcellulose) (HPC)
[10] = dose: 50.0 mg/kg/injection, schedule: Q01DX001 (ip), vehicle: saline
[11] = dose: 100.0 mg/kg/injection, schedule: Q01DX001 (ip), vehicle: saline
[12] = dose: 200.0 mg/kg/injection, schedule: Q01DX001 (ip), vehicle: saline
[13] = dose: 400.0 mg/kg/injection, schedule: Q01DX001 (ip), vehicle: saline
[14] = dose: 10.0 mg/kg/injection, schedule: Q01DX001 (ip), vehicle: saline
[15] = dose: 25.0 mg/kg/injection, schedule: Q01DX009 (ip), vehicle: saline
[16] = dose: 50.0 mg/kg/injection, schedule: Q01DX009 (ip), vehicle: saline
[17] = dose: 100.0 mg/kg/injection, schedule: Q01DX009 (ip), vehicle: saline
[18] = dose: 100.0 mg/kg/injection, schedule: Q04DX003 (ip), vehicle: saline
[19] = dose: 200.0 mg/kg/injection, schedule: Q01DX009 (ip), vehicle: saline
[20] = dose: 200.0 mg/kg/injection, schedule: Q04DX003 (ip), vehicle: saline
[21] = dose: 400.0 mg/kg/injection, schedule: Q04DX003 (ip), vehicle: saline
[22] = dose: 100.0 mg/kg/injection, schedule: Q01DX001 (ip), vehicle: Klucel (hydroxypropylcellulose) (HPC)
[23] = dose: 200.0 mg/kg/injection, schedule: Q01DX001 (ip), vehicle: Klucel (hydroxypropylcellulose) (HPC)
[24] = dose: 400.0 mg/kg/injection, schedule: Q01DX001 (ip), vehicle: Klucel (hydroxypropylcellulose) (HPC)
[25] = dose: 12.5 mg/kg/injection, schedule: Q01DX009 (ip), vehicle: Klucel (hydroxypropylcellulose) (HPC)
[26] = dose: 25.0 mg/kg/injection, schedule: Q01DX009 (ip), vehicle: Klucel (hydroxypropylcellulose) (HPC)
[27] = dose: 50.0 mg/kg/injection, schedule: Q01DX009 (ip), vehicle: Klucel (hydroxypropylcellulose) (HPC)

Measured: T/C

O=[N+]([O-])c1cccc(S(=O)(=O)Oc2ccc(-c3ccccc3)cc2)c1
inactive: [1] 96 % of control | [2] 91 % of control | [3] 90 % of control

C[C@@H](N)[C@@H](O)c1ccccc1
inactive: dose: 30.0 mg/kg/injection, schedule: Q01DX Z (oral), vehicle: saline 101 % of control | dose: 60.0 mg/kg/injection, schedule: Q01DX Z (oral), vehicle: saline 101 % of control

c1ccc(C2=C(c3ccccc3)C23SCCS3)cc1
inactive: [4] 101 % of control | [5] 94 % of control | [6] 97 % of control | [7] 100 % of control | [8] 98 % of control | [9] 96 % of control

COC(OC)c1cccc([N+](=O)[O-])c1
inactive: [10] 111 % of control | [11] 107 % of control | [12] 102 % of control | [13] 100 % of control

CSC1=Nc2c(C)nn(C)c2C(c2ccccc2)S1 (configuration not stated)
inactive: dose: 100.0 mg/kg/injection, schedule: Q04DX002 (ip), vehicle: saline with Tween-80 100 % of control and 112 % of control | [1] 97 % of control and 101 % of control | dose: 200.0 mg/kg/injection, schedule: Q04DX002 (ip), vehicle: saline with Tween-80 104 % of control and 89 % of control | [2] 96 % of control and 100 % of control | dose: 400.0 mg/kg/injection, schedule: Q04DX002 (ip), vehicle: saline with Tween-80 94 % of control and 104 % of control | [3] 96 % of control and 100 % of control

CC1=CC23C(COC(=O)C24CO4)C(C(=O)O)=CC3C1C (configuration not stated)
inactive: [14] 96 % of control

CCCC1(CCC)CN(CO)C1=O
inactive: [15] 102 % of control | dose: 25.0 mg/kg/injection, schedule: Q04DX003 (ip), vehicle: saline 93 % of control | [16] 102 % of control | dose: 50.0 mg/kg/injection, schedule: Q04DX003 (ip), vehicle: saline 98 % of control | [17] 100 % of control | [18] 104 % of control | [19] 97 % of control | [20] 104 % of control | [21] 88 % of control

Nc1cc(Br)cc2c1nc(NCCO)c1ccccc12
inactive: dose: 50.0 mg/kg/injection, schedule: Q04DX003 (ip), vehicle: Klucel (hydroxypropylcellulose) (HPC) 118 % of control | [5] 102 % of control | [7] 97 % of control | [9] 105 % of control

Cc1cc(=O)[nH]c(N2CCOCC2)n1
inactive: [11] 106 % of control | [12] 101 % of control

O=S(=O)(CCl)Nc1ccncc1
inactive: dose: 100.0 mg/kg/injection, schedule: Q04DX013 (ip), vehicle: carboxymethylcellulose (CMC) 101 % of control | dose: 200.0 mg/kg/injection, schedule: Q04DX013 (ip), vehicle: carboxymethylcellulose (CMC) 100 % of control | dose: 400.0 mg/kg/injection, schedule: Q04DX013 (ip), vehicle: carboxymethylcellulose (CMC) 100 % of control

C=Cc1nc2ccccc2[nH]1 (tested in a mixture with another compound)
inactive: dose: 5.0 mg/kg/injection, schedule: Q01DX001 (ip), vehicle: saline 95 % of control | [14] 96 % of control | dose: 20.0 mg/kg/injection, schedule: Q01DX001 (ip), vehicle: saline 96 % of control | dose: 80.0 mg/kg/injection, schedule: Q01DX001 (ip), vehicle: saline 102 % of control

Cc1ccc2c(Cl)ccc(Cl)c2n1
inactive: dose: 100.0 mg/kg/injection, schedule: Q04DX002 (ip), vehicle: Klucel (hydroxypropylcellulose) (HPC) 90 % of control | dose: 100.0 mg/kg/injection, schedule: Q04DX002 (ip), vehicle: carboxymethylcellulose (CMC) 98 % of control and 90 % of control | dose: 100.0 mg/kg/injection, schedule: Q04DX003 (ip), vehicle: carboxymethylcellulose (CMC) 95 % of control | dose: 200.0 mg/kg/injection, schedule: Q04DX002 (ip), vehicle: Klucel (hydroxypropylcellulose) (HPC) 90 % of control | dose: 200.0 mg/kg/injection, schedule: Q04DX002 (ip), vehicle: carboxymethylcellulose (CMC) 94 % of control and 91 % of control | dose: 200.0 mg/kg/injection, schedule: Q04DX003 (ip), vehicle: carboxymethylcellulose (CMC) 104 % of control | dose: 400.0 mg/kg/injection, schedule: Q04DX002 (ip), vehicle: Klucel (hydroxypropylcellulose) (HPC) 105 % of control | dose: 400.0 mg/kg/injection, schedule: Q04DX002 (ip), vehicle: carboxymethylcellulose (CMC) 92 % of control

CCOC(=O)CCC(NC(=O)c1ccc(N(C)Cc2cnc3nc(NC(C)=O)cc(NC(C)=O)c3n2)cc1)C(=O)OCC (configuration not stated)
inactive: dose: 100.0 mg/kg/injection, schedule: Q01DX001 (ip), vehicle: other 102 % of control | dose: 200.0 mg/kg/injection, schedule: Q01DX001 (ip), vehicle: other 93 % of control | dose: 400.0 mg/kg/injection, schedule: Q01DX001 (ip), vehicle: other 95 % of control

CC(=O)OC12CCCC(=O)C1C1CC/C=C\CCC12 (configuration not stated)
inactive: [22] 111 % of control | [4] 98 % of control | [5] 95 % of control | [23] 108 % of control | [6] 98 % of control | [7] 98 % of control | [24] 102 % of control | [8] 96 % of control | [9] 95 % of control

O=C(N/N=C/c1ccc(Cl)cc1)Nc1ccccc1
inactive: [4] 90 % of control | [6] 96 % of control

C[S+](C)C12CC3CC(CC(C3)C1)C2
inactive: [15] 108 % of control | dose: 25.0 mg/kg/injection, schedule: Q04DX002 (ip), vehicle: saline 102 % of control | [16] 94 % of control | dose: 50.0 mg/kg/injection, schedule: Q04DX002 (ip), vehicle: saline 102 % of control | [17] 86 % of control | dose: 100.0 mg/kg/injection, schedule: Q04DX002 (ip), vehicle: saline 94 % of control and 96 % of control

CCOC(=O)C1/C(=N\N=C2\c3c(nnp3N(CCOS(C)(=O)=O)CCOS(C)(=O)=O)C(C(=O)OCC)C(c3ccc(OC(C)=O)cc3)C2C(=O)OCC)c2c(nnp2N(CCOS(C)(=O)=O)CCOS(C)(=O)=O)C(C(=O)OCC)C1c1ccc(OC(C)=O)cc1 (configuration not stated)
inactive: [10] 103 % of control | [11] 109 % of control | [12] 109 % of control | [13] 107 % of control

COc1cc(C(=O)NCC(=O)O)cc(OC)c1OC
inactive: [17] 86 % of control | [18] 107 % of control | [19] 86 % of control | [20] 98 % of control | [21] 95 % of control

COc1ccccc1OCCOCCN(C)C1CCCCC1
inactive: [25] 93 % of control | [26] 94 % of control | dose: 25.0 mg/kg/injection, schedule: Q04DX002 (ip), vehicle: Klucel (hydroxypropylcellulose) (HPC) 102 % of control | [27] 96 % of control | dose: 50.0 mg/kg/injection, schedule: Q04DX002 (ip), vehicle: Klucel (hydroxypropylcellulose) (HPC) 105 % of control

CCOC(=O)NCc1cccc2ccc(Cl)cc12
inactive: [22] 95 % of control | [23] 90 % of control | [24] 86 % of control

CCOC(=O)/C(=C/c1ccc(C)cc1)P(=O)(OCC)OCC
inactive: [10] 101 % of control | [11] 101 % of control

Nc1nc(N)c(CCCOc2ccc(C(=O)O)cc2)c(N)n1
inactive: [25] 95 % of control | [26] 100 % of control | [27] 93 % of control

CCCCC(CC)CCC(=O)CC(C)C (configuration not stated)
inactive: [4] 91 % of control | [5] 108 % of control | [6] 102 % of control | [7] 98 % of control | [9] 98 % of control

CC1(C)CC2(CC(C)(C)c3cc(O)c(O)cc32)c2cc(O)c(O)cc21
inactive: [4] 95 % of control | [5] 100 % of control | [6] 100 % of control | [7] 105 % of control | [8] 104 % of control | [9] 102 % of control

CCN(CC)CCOC(=O)c1[nH]cnc1/N=N\N(C)C
inactive: [11] 104 % of control | [12] 98 % of control
